ChEMBL document CHEMBL1201862, “PubChem BioAssay data set” (2004)
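Following 48 hours of exposure in 96-well plates, responses at five concentrations were used to interpolate endpoints linearly. Abbreviation: GI50, concentration required for 50% inhibition of growth.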 Active and inactive are the calls of the source. Rule as the data show it: active = GI50 up to about 1.1 µM and inactive = higher.

Key:
Assay in all cases: NCI tumour cell line growth inhibition, 48 h
786-0 = system: 786-0
A549 = system: A549
ACHN = system: ACHN
BT-549 = system: BT-549
CAKI-1 = system: CAKI-1
CCRF-CEM = system: CCRF-CEM
COLO 205 = system: COLO 205
DU-145 = system: DU-145
EKVX = system: EKVX
HCC 2998 = system: HCC 2998
HCT-116 = system: HCT-116
HCT-15 = system: HCT-15
HL-60 = system: HL-60
HOP-62 = system: HOP-62
HT-29 = system: HT-29
IGROV-1 = system: IGROV-1
K562 = system: K562
M14 = system: M14
MCF7 = system: MCF7
MOLT-4 = system: MOLT-4
Malme-3M = system: Malme-3M
NCI-H226 = system: NCI-H226
NCI-H23 = system: NCI-H23
NCI-H460 = system: NCI-H460
NCI-H522 = system: NCI-H522
NCI/ADR-RES = system: NCI/ADR-RES
OVCAR-3 = system: OVCAR-3
OVCAR-4 = system: OVCAR-4
OVCAR-5 = system: OVCAR-5
OVCAR-8 = system: OVCAR-8
PC-3 = system: PC-3
RPMI-8226 = system: RPMI-8226
RXF 393 = system: RXF 393
SF-268 = system: SF-268
SF-295 = system: SF-295
SF-539 = system: SF-539
SK-MEL-28 = system: SK-MEL-28
SK-MEL-2 = system: SK-MEL-2
SK-MEL-5 = system: SK-MEL-5
SK-OV-3 = system: SK-OV-3
SNB-19 = system: SNB-19
SNB-75 = system: SNB-75
SR = system: SR
SW-620 = system: SW-620
TK-10 = system: TK-10
U-251 = system: U-251
UACC-257 = system: UACC-257
UACC-62 = system: UACC-62
UO-31 = system: UO-31

CC(C)=NN/C=N\C(C#N)=C(/N)C#N
GI50 (786-0): > 100 µM (inactive)
GI50 (A549): > 100 µM (inactive)
GI50 (ACHN): > 100 µM (inactive)
GI50 (BT-549): > 100 µM (inactive)
GI50 (CAKI-1): > 100 µM (inactive)
GI50 (CCRF-CEM): > 100 µM (inactive)
GI50 (COLO 205): > 100 µM (inactive)
GI50 (DU-145): > 100 µM (inactive)
GI50 (EKVX): > 100 µM (inactive)
GI50 (HCC 2998): 0.262 µM (active)
GI50 (HCT-116): 78.9 µM (inactive)
GI50 (HCT-15): > 100 µM
GI50 (HL-60): > 100 µM (inactive)
GI50 (HOP-62): > 100 µM (inactive)
GI50 (HT-29): > 100 µM (inactive)
GI50 (IGROV-1): > 100 µM (inactive)
GI50 (K562): > 100 µM (inactive)
GI50 (M14): > 100 µM (inactive)
GI50 (MCF7): > 100 µM (inactive)
GI50 (MOLT-4): > 100 µM (inactive)
GI50 (Malme-3M): 69.2 µM (inactive)
GI50 (NCI-H226): > 100 µM (inactive)
GI50 (NCI-H23): > 100 µM (inactive)
GI50 (NCI-H460): > 100 µM (inactive)
GI50 (NCI-H522): > 100 µM (inactive)
GI50 (NCI/ADR-RES): > 100 µM (inactive)
GI50 (OVCAR-3): > 100 µM (inactive)
GI50 (OVCAR-4): > 100 µM (inactive)
GI50 (OVCAR-5): > 100 µM (inactive)
GI50 (OVCAR-8): > 100 µM (inactive)
GI50 (PC-3): > 100 µM (inactive)
GI50 (RPMI-8226): > 100 µM (inactive)
GI50 (RXF 393): > 100 µM (inactive)
GI50 (SF-268): > 100 µM (inactive)
GI50 (SF-295): > 100 µM (inactive)
GI50 (SF-539): > 100 µM (inactive)
GI50 (SK-MEL-28): > 100 µM (inactive)
GI50 (SK-MEL-2): > 100 µM (inactive)
GI50 (SK-MEL-5): 25.8 µM (inactive)
GI50 (SK-OV-3): > 100 µM (inactive)
GI50 (SNB-19): > 100 µM (inactive)
GI50 (SNB-75): 0.466 µM (active)
GI50 (SR): > 100 µM (inactive)
GI50 (SW-620): > 100 µM (inactive)
GI50 (TK-10): > 100 µM (inactive)
GI50 (U-251): > 100 µM (inactive)
GI50 (UACC-257): > 100 µM (inactive)
GI50 (UACC-62): > 100 µM (inactive)
GI50 (UO-31): > 100 µM (inactive)
